What was measured:
[1] = tested on: Parainfluenza virus; assay: Parainfluenza virus pre-incubated with compound, grown in fertilized hen eggs, hemagglutination read-out; type: cell-based; parameters: key: -: undetectable; ++++: indicative of hemagglutination produced by virus grown under control conditions
Description: The effectiveness of certain novel compounds was tested against Parainfluenza virus which was grown in fertilized hen eggs as determined by the method of Haywood, J. of Mol. Biol., 83, 427 (1974). The virus was at titer of 10^5 to 10^6 was incubated in the presence of 10 ug/ml or 100 u^g/ml of one of the four compounds at 37° C for 2 hours. The mixtures of the virus and anti-viral compound were diluted to a final concentration of 10-^7 then injected into 9-day old fertilized hen eggs using 5 to 6 eggs for each dilution and incubated at 37° C for 48 hours. After the incubation period, a drop of amniotic fluid from the eggs was put on mirror-glass and mixed with 2% washed hen erythrocytes. Appearance of hemagglutination indicated the presence of virus in the egg. LDso was calculated from the results. The following Table 1 presents the results that were obtained. The virus concentrations ranged from -(undetectable) to + + + + (indicative of hemagglutination produced by virus grown under control conditions).

[2] = tested on: Sendai virus; assay: Sendai virus assay (method as described for Parainfluenza); type: cell-based; conditions: reduction in the virus titer compared to control
[3] = compound 100 µg/ml, Virus Concentrations 10
[4] = compound 100 µg/ml, Virus Concentrations 10^2
[5] = compound 100 µg/ml, Virus Concentrations 10^3

Row | Substance | hemagglutination (presence of virus in the egg) ([1]; compound 10 µg/ml, Virus Concentrations 10^4) | hemagglutination (presence of virus in the egg) [1, 3] | hemagglutination (presence of virus in the egg) [1, 4] | Virus Titer Reduction ([2]; 1µg/ml) | Virus Titer Reduction ([2]; 10µg/ml) | Virus Titer Reduction ([2]; 50µg/ml) | Virus Titer Reduction ([2]; 100µg/ml) | hemagglutination (presence of virus in the egg) [1, 5] | hemagglutination (presence of virus in the egg) ([1]; compound 10 µg/ml, Virus Concentrations 10) | hemagglutination (presence of virus in the egg) ([1]; compound 10 µg/ml, Virus Concentrations 10^2)
1 | N-(1,1-dimethyl 3-oxybutyl phosphatidyl ethanolamine [DMOB-PE] | ++++ | - | - | less than 10% | ranged from 75-99% | ranged from 90-93% | 100% (virus undetectable) |  |  | 
2 | Phosphatidyl benzyl alcohol [P-BA] |  | - | - |  |  |  |  | - |  | 
3 | 4-N-Acetyl phosphatidylethanolamine [A-PE] |  |  |  | about 50% | ranged from 75-95% | ranged from 90-99% | 100% (virus undetectable) |  |  | 
4 | 5-Schiff Base of PE and Menadione (Vitamin K3) [PE-M] |  | - | - |  |  |  |  | - | - | -

Reference: patent EP0316117A1 (priority 1987, dated 1989)
